The OPERA property sets (Mansouri et al. 2018)

settings: not given

| SMILES | boiling point [°C] | log10 vapour pressure (mmHg) | melting point [°C] | ready biodegradability | log10 Koc (L/kg) | log10 Henry constant (atm·m³/mol) | log10 Koa |
| --- | --- | --- | --- | --- | --- | --- | --- |
| CNNC | 81 | 1.84 | -9 | – | – | – | – |
| CCCCCCCCCCCCCCCCCC(=O)OCCCC | 343 | – | 27 | – | – | – | – |
| C#CCO | 114 | 1.19 | -51.8 | readily biodegradable | – | – | – |
| COc1cc(C(=O)O)cc(OC)c1O | – | – | 208 | readily biodegradable | – | – | – |
| CCOC(=O)c1ccccc1C(=O)OCC | 295 | -2.68 | -40.5 | not readily biodegradable | 1.84 | – | – |
| CC1CCCO1 (stereo not given) | 78 | 1.99 | – | – | – | -4.03 | – |
| COC(=O)C(C)N(C(=O)Cc1ccccc1)c1c(C)cccc1C (stereo not given) | – | -5 | 79 | – | 3.54 | – | – |
| CCCCBr | 101 | 1.62 | -112 | – | – | – | – |
| O=CC(Cl)(Cl)Cl | 97.8 | 1.7 | -57.5 | not readily biodegradable | – | -8.54 | – |
| NC(=O)c1ccc(F)cc1 | – | – | 156 | – | – | – | – |
| C=C(C)c1ccc(Cl)cc1 | – | – | – | not readily biodegradable | – | – | – |
| CCCC(C1CCCCC1)C1CCCCC1 | 293 | – | -10.5 | – | – | – | – |
| NC[C@H](O)c1ccccc1 | – | – | 56.5 | – | – | – | – |
| c1ccc2c(c1)ccc1ncccc12 | 352 | -4.25 | 94 | – | 4.64 | – | – |
| NCCO | 171 | -0.394 | 10.5 | readily biodegradable | – | – | – |
| [C-]#[N+]CCCC | 120 | – | – | – | – | – | – |
| N#Cc1nc(C#N)nc(C#N)n1 | 262 | – | 119 | – | – | – | – |
| NS(=O)(=O)c1ccc(N2CCCCS2(=O)=O)cc1 | – | – | 181 | – | – | – | – |
| c1ccc(CNc2ccccc2)cc1 | 306 | – | 37.5 | – | – | – | – |
| Cc1ccc(Cl)c(Cl)c1 | 209 | -0.502 | -15.2 | – | – | – | – |
| CC(Cl)CC(Cl)Cl (stereo not given) | 152 | – | – | – | – | – | – |
| CCCCN(C(C)=O)c1ccccc1 | 281 | – | 24.5 | – | – | – | – |
| O=C(Cn1c(=O)sc2ccc(Cl)cc21)N1CCN(CCO)CC1 | – | – | 160 | – | – | – | – |
| CC1=C(O)C(=O)CC1 | – | – | 106 | – | – | – | – |
| Cc1nonc1C | 156 | – | -7 | – | – | – | – |
| Cc1cc(Br)cc(Br)c1O | – | – | 58 | – | – | – | – |

| SMILES | boiling point [°C] | log10 vapour pressure (mmHg) | melting point [°C] | ready biodegradability | log10 Koc (L/kg) | log10 Henry constant (atm·m³/mol) | log10 Koa |
| --- | --- | --- | --- | --- | --- | --- | --- |
| CCOc1ccc(NC(=O)C(C)O)cc1 (stereo not given) | – | – | 118 | – | – | – | – |
| CC#CCC(C)C | 102 | – | -92.9 | – | – | – | – |
| COC(=O)C(C)(C)C | 101 | – | – | – | – | -3.37 | – |
| O=C([O-])CF.[Na+] | – | – | 201 | – | – | – | – |
| BrCC1CO1 (stereo not given) | 135 | – | -40 | – | – | – | – |
| FC(F)(Br)C(F)(F)Br | 47.3 | 2.51 | -110 | not readily biodegradable | – | – | – |
| CC(C)(C)C(=O)O | 164 | -0.301 | 35 | not readily biodegradable | – | -5.56 | – |
| CC(=O)OCC=Cc1ccccc1 | 265 | – | – | – | – | – | – |
| CC(C)C12C=CC(C)(CC1)OO2 (stereo not given) | – | – | 3.3 | – | – | – | – |
| O=C(Nc1ccccc1)c1ccccc1O | – | – | 136 | – | – | – | – |
| CC=C(Cl)C=O | 148 | – | – | – | – | – | – |
| S=P(N1CC1)(N1CC1)N1CC1 | – | – | 51.5 | – | – | – | – |
| CCCCCCCCCCCCSCCC(=O)OCC(COC(=O)CCSCCCCCCCCCCCC)(COC(=O)CCSCCCCCCCCCCCC)COC(=O)CCSCCCCCCCCCCCC | – | – | – | not readily biodegradable | – | – | – |
| Cc1ccc(NC(=S)Nc2ccc(C)cc2)cc1 | – | – | 183 | – | – | – | – |
| CC(C)COC(=O)CC(C)C | 168 | 0.266 | – | – | – | – | – |
| C=CC(=O)OCCn1c(=O)n(CCOC(=O)C=C)c(=O)n(CCOC(=O)C=C)c1=O | – | – | – | not readily biodegradable | – | – | – |
| CC(I)I | 180 | – | – | – | – | – | – |
| CC(C)[C@@H](C)C(=O)O | 192 | – | -1.5 | – | – | – | – |
| O=C(C(=O)c1ccco1)c1ccco1 | – | – | 164 | – | – | – | – |
| Nc1nc(N)c2[nH]cnc2n1 | – | – | 302 | – | – | – | – |
| Clc1cc(Cl)c2c(oc3ccc(Cl)c(Cl)c32)c1Cl | – | – | 210 | – | – | – | – |
| CC(C)c1cc(C(C)C)c(C(C)C)cc1C(C)C | 259 | -2.7 | 118 | – | – | – | – |
| Clc1ccc(Cl)cc1 | 174 | 0.24 | 52.1 | not readily biodegradable | 2.65 | -2.62 | 4.46 |
| CCC(C)(Cl)CC | 116 | – | – | – | – | – | – |
| CC(=O)c1c(O)c(C)c(O)c2c1OC1=CC(=O)C(C(C)=O)C(=O)C12C (stereo not given) | – | – | 204 | – | – | – | – |
| Cc1ccc(N)cc1Br | 256 | – | 26 | – | – | – | – |

| SMILES | boiling point [°C] | log10 vapour pressure (mmHg) | melting point [°C] | ready biodegradability | log10 Koc (L/kg) | log10 Henry constant (atm·m³/mol) | log10 Koa |
| --- | --- | --- | --- | --- | --- | --- | --- |
| O=C(O)c1cccc(O)c1O | – | – | 204 | – | – | – | – |
| Clc1cc(Cl)c(-c2c(Cl)cc(Cl)cc2Cl)c(Cl)c1 | – | -4.92 | – | – | 6.08 | – | 8.99 |
| c1ccc2sc(SN3CCOCC3)nc2c1 | – | -5.48 | 85 | not readily biodegradable | – | – | – |
| COCCCl | 92.5 | – | – | – | – | – | – |
| O=C(CCl)Oc1ccccc1 | 232 | – | 44.5 | – | – | – | – |
| COc1cc(OC)cc(O[C@H]2O[C@H](CO)[C@@H](O)[C@H](O)[C@H]2O)c1 | – | – | 170 | – | – | – | – |
| O=C1CCOc2ccccc21 | – | – | 36.5 | – | – | – | – |
| Cc1noc(NS(=O)(=O)c2ccc(N)cc2)c1C | – | – | 191 | – | – | – | – |
| COc1ccccc1N(C)C | 210 | – | – | – | – | – | – |
| c1cn[nH]c1 | 187 | – | 68 | – | – | – | – |
| FC(F)CBr | 57.3 | – | -75 | – | – | – | – |
| CC[C@H](Br)C(=O)O | – | – | -4 | – | – | – | – |
| CCCCCCCC=O | 171 | 0.0719 | -23 | – | – | -3.29 | 5.36 |
| OCCC1CCCCN1 (stereo not given) | 202 | – | 69 | – | – | – | – |
| CCOP(=S)(OCC)SCS(=O)C(C)(C)C (stereo not given) | – | – | – | – | 2.18 | – | – |
| CCCCOCN(C(=O)CCl)c1c(CC)cccc1CC | – | -5.54 | -2.8 | – | 2.86 | -7.29 | – |
| COC1=C(O)C(=O)C(C)=C(O)C1=O | – | – | 202 | – | – | – | – |
| C=CC(C)=O | 81.4 | – | – | not readily biodegradable | – | -4.33 | – |
| O=[N+]([O-])c1ccc(Oc2c(Cl)cc(Cl)cc2Cl)cc1 | – | – | 106 | not readily biodegradable | 3.9 | – | – |
| Clc1cc(-c2ccccc2)c(Cl)c(Cl)c1Cl | – | -4.43 | – | – | – | – | 8.74 |
| C=CC[N+](=O)[O-] | 128 | – | – | – | – | – | – |
| CCCCCC(=O)O | 205 | -1.36 | -3 | readily biodegradable | 1.46 | -6.12 | – |
| Oc1ccc(Nc2ccc(O)cc2)cc1 | – | – | 174 | – | – | – | – |
| c1ccc2c(c1)COC2 | 192 | – | – | – | – | – | – |
| Oc1c(Br)c(Br)c(O)c(Br)c1Br | – | – | 244 | – | – | – | – |
| Oc1ccc(Br)cc1 | – | – | – | not readily biodegradable | 2.41 | – | – |

| SMILES | boiling point [°C] | log10 vapour pressure (mmHg) | melting point [°C] | ready biodegradability | log10 Koc (L/kg) | log10 Henry constant (atm·m³/mol) | log10 Koa |
| --- | --- | --- | --- | --- | --- | --- | --- |
| CC(C)CN=C=S | 160 | – | – | – | – | – | – |
| CC(/C=C/C=C(C)/C=C/[C@@]1(O)C(C)(C)CCC[C@@]1(C)O)=C\C=C\C=C(C)\C=C\C(=O)O | – | – | 213 | – | – | – | – |
| FC(F)(F)CS | 34.5 | – | – | – | – | – | – |
| C=CCBr | 70.1 | – | -119 | – | – | – | – |
| CC(C)(O)Cc1ccc(Cl)cc1 | – | – | 34 | – | – | – | – |
| CC(=O)Oc1ccc(C)cc1 | 212 | – | – | – | – | – | – |
| OCc1ccco1 | 171 | -0.215 | -14.6 | readily biodegradable | – | – | – |
| CCC(CC)CCl | 126 | – | – | – | – | – | – |
| CC1(C)[C@H](C(=O)O[C@H](C#N)c2cccc(Oc3ccccc3)c2)[C@@H]1C(Br)C(Br)(Br)Br (stereo not given in full) | – | -10.4 | 143 | – | 5 | – | – |
| Oc1ccccc1Cc1ccccc1 | 312 | – | 21 | – | – | – | – |
| OC(c1ccccc1)(c1ccccc1)C(O)(c1ccccc1)c1ccccc1 | – | – | 182 | – | – | – | – |
| CCOC(=O)n1ccn(C)c1=S | – | – | 124 | – | – | – | – |
| CCCCC(C(C)=O)C(=O)OCC (stereo not given) | 222 | – | – | – | – | – | – |
| O=[N+]([O-])c1ccc(Cl)c(C(F)(F)F)c1 | 232 | – | 22 | – | – | – | – |
| COC(=O)[C@]12OC[C@]34[C@H]([C@@H](O)[C@@H]1O)[C@@]1(C)CC(=O)C(O)=C(C)[C@@H]1C[C@H]3OC(=O)[C@H](OC(=O)/C=C(\C)C(C)C)[C@@H]24 | – | – | 226 | – | – | – | – |
| Cc1ccc(Br)cc1C | 214 | – | -0.2 | – | – | – | – |
| BrCCCCCCCCBr | 271 | – | 15.5 | – | – | – | – |
| CCCCCOC(=O)CCC | 186 | – | -73.2 | – | – | – | – |
| CCOC(C)Cl (stereo not given) | 93.5 | – | – | – | – | – | – |
| C1CCC(C2CCCCC2)CC1 | 238 | -0.967 | 4 | – | – | – | – |
| CCCCCC=CC=O | – | – | – | – | – | -4.13 | – |
| O=C(c1ccc(O)cc1O)c1ccc(O)cc1O | – | – | 202 | – | – | – | – |
| C=CCSSCC=C | 188 | – | – | – | – | – | – |
| Cc1c(C2(c3cc(C(C)C)c(O)c(Br)c3C)OS(=O)(=O)c3ccccc32)cc(C(C)C)c(O)c1Br | – | – | 201 | – | – | – | – |

same assay, conditions: fish

| SMILES | log10 BCF | log10 biotransformation half-life (days) |
| --- | --- | --- |
| C=C(C)c1ccc(Cl)cc1 | 2.84 | 1.3 |
| CC(C)(C)C(=O)O | 0.36 | – |
| Clc1ccc(Cl)cc1 | 2.62 | 1.1 |
| O=[N+]([O-])c1ccc(Oc2c(Cl)cc(Cl)cc2Cl)cc1 | 3.31 | 0.75 |
| Oc1ccc(Br)cc1 | 1.17 | – |
| C1CCC(C2CCCCC2)CC1 | – | 0.38 |
